We go through 14 compounds from paper PMC10305617, “Sesquiterpene Coumarin Ethers with Selective Cytotoxic Activities from the Roots of Ferula huber-morathii Peşmen (Apiaceae) and Unequivocal Determination of the Absolute Stereochemistry of Samarcandin” (Pharmaceuticals, 2023).

Holding throughout (type): cell-based, Human
The subject of one data set is HUVEC. Nature of the data set: MTS cell viability (cytotoxic activity) assay, non-cancerous HUVEC. The following applies: Homo sapiens, 72 h, mean ± SD, at least three experiments. From the text: (§1) Human colorectal cancer (COLO 205, CCL-222), breast cancer (MCF-7, HTB-22), chronic myelogenous leukemia (K-562, CCL-243), and umbilical vein/vascular endothelium (HUVEC, CRL-1730) cell lines were obtained from the American Type Culture Collection. The COLO 205, MCF-7, K-562, and HUVEC cell lines were maintained in Roswell Park Memorial Institute ([…], Wisent, Montreal, QC, CANADA), Eagle′s Minimum Essential Medium (EMEM, Wisent, Montreal, QC, CANADA), Iscove’s Modified Dulbecco’s Medium (IMDM, Wisent, Montreal, QC, CANADA), and Dulbecco′s Modified Eagle Medium (DMEM, Wisent, Montreal, QC, CANADA) supplemented with 10% fetal bovine serum (Capricorn, Ebsdorfergrund, Germany), 100 U/mL penicillin, and 100 µg/mL streptomycin (Wisent, Montreal, QC, CANADA), respectively. All of the cell lines were cultured at 37 °C in a humidified atmosphere containing 5% CO2.
(§2) A 3-[4,5-dimethylthiazol-2-yl]-5-[3-carboxymethoxyphenyl]-2-[4-sulfophenyl]-2H-tetrazolium, inner salt (MTS) cell viability assay was performed to evaluate the cytotoxic activities of the sesquiterpene coumarin ethers isolated from Ferula huber-morathii. HUVEC (1 × 10^4), COLO 205 (3 × 10^4), K-562 (3 × 10^4), and MCF7 (5 × 10^4) were plated in 96-well plates. Then, 24 h later, the tested compounds were dissolved in DMSO, and the cells were exposed to the different concentrations (131.58–1.028 µM) of the compounds for 72 h. Cisplatin and doxorubicin were used as a positive control. Next, an MTS/phenazine methosulfate (PMS) (Promega, Madison, WI, USA and Sigma, St. Louis, MO, USA respectively) mixture was added to each well and incubated for 1–4 h at 37 °C. The absorbance was read on a microplate reader (Biotek, Winooski, VT, USA) at 490 nm. The cytotoxic activities of the compounds were expressed as an IC50 value. The % inhibition of cell proliferation was calculated using the formula: % Inhibition = [1-(A490test/A490cont)] × 100, where A490test = absorbance of the test sample and A490cont = absorbance of the control sample [88]. The values of the 50% inhibition of the cell proliferation (IC50) were calculated by locating the x-axis values corresponding to one-half of the absorbance values of the sample.

A further data set deals with K-562. Nature of the data set: MTS cell viability (cytotoxic activity) assay, K-562. The following applies: for IC50: Homo sapiens, K562, K-562, MTS, 72 h, mean ± SD, at least three experiments.
Excerpt: as §1, §2

The test system of the next data set is MCF-7. Nature of the data set: MTS cell viability (cytotoxic activity) assay, MCF-7. The following applies: for IC50: Homo sapiens, MCF7, MCF-7, MTS, 72 h, mean ± SD, at least three experiments; for cytotoxic effect in words, MCF-7: verbal summary.
Excerpt: as §1, §2

A further data set has as its system COLO 205. Nature of the data set: MTS cell viability (cytotoxic activity) assay, COLO 205. The following applies: for IC50: Homo sapiens, COLO 205, MTS, 72 h, mean ± SD, at least three experiments.
Excerpt: as §1, §2

Data set [1] has as its system COLO 205, K-562, MCF-7 and HUVEC cell lines. Nature of the data set: MTS cytotoxicity, overall verbal grading over the cell line panel. As to conditions: authors' verbal summary over COLO 205, K-562, MCF-7, HUVEC.
Excerpt: as §1, §2

With `CC1(C)[C@H](O)CC[C@]2(C)[C@@H]1CC[C@@](C)(O)[C@@H]2COc1ccc2ccc(=O)oc2c1` [Ferukrin (9), ferukrin], the IC50 is greater than 200 µM in the data set on HUVEC, greater than 200 µM in the data set with K-562, 81.7 ± 1.96 µM in the data set on MCF-7 and greater than 200 µM in the data set with COLO 205. Further, in data set [1], the cytotoxicity in words entry is recorded as “little or no cytotoxicity”.
Consider `CC1(C)[C@H]2CC[C@@](C)(O)[C@H](COc3ccc4ccc(=O)oc4c3)[C@]2(C)CC[C@@H]1O` [Deacetylkellerin (11), deacetylkellerin], for which the IC50 with HUVEC was greater than 200 µM; with K-562, greater than 200 µM; with MCF-7, 47.62 ± 0.4 µM; with COLO 205, greater than 200 µM. In addition, the cytotoxicity in words entry in data set [1] is recorded as “little or no cytotoxicity”.
For `C=C1CCC2C(C)(C)C(OC(C)=O)CCC2(C)C1COc1ccc2ccc(=O)oc2c1` (centres unmarked) [Farnesiferol A acetate (7), farnesiferol A acetate], the IC50 is 64.5 ± 1.56 µM in the data set on HUVEC, 52.7 ± 0.9 µM in the data set with K-562, 27.4 ± 0.96 µM in the data set on MCF-7 and 66 ± 1.89 µM in the data set with COLO 205. In addition, in the data set with MCF-7, the “cytotoxic effect in words, MCF-7” value was “moderate cytotoxic activity”. Further, the cytotoxicity in words entry in data set [1] is reported as “moderate or strong cytotoxicity”.
As for `CC1(C)C(=O)CC[C@]2(C)[C@@H]1CC[C@](C)(O)[C@H]2COc1ccc2ccc(=O)oc2c1` [Samarcandone (13), samarcandone], the IC50 in the data set on HUVEC is 190 ± 5.2 µM; with K-562, greater than 200 µM; in the data set on MCF-7, greater than 200 µM; in the data set with COLO 205 it was 125 ± 2.13 µM. In data set [1], the cytotoxicity in words result was “little or no cytotoxicity”.
For `CN1C[C@H](c2cccc(C#N)c2)Oc2ccccc2C1=O` [Compound 6, reference compound], in data set [1], the cytotoxicity in words result was “little or no cytotoxicity”.
`CC1=CC[C@@H]2C(C)(C)[C@@H](O)CC[C@@]2(C)[C@@H]1COc1ccc2ccc(=O)oc2c1` [Conferol (2), conferol]: the IC50 in the data set on HUVEC was determined as 61.03 ± 0.29 µM; in the data set with K-562, 35.2 ± 0.89 µM; in the data set on MCF-7, 16 ± 0.46 µM; with COLO 205, 11.2 ± 0.68 µM. Besides, in the data set on K-562 (HUVEC versus K-562), the “selectivity index K-562” value is given as 1.73. Further, the “selectivity index MCF-7” value with MCF-7 (HUVEC versus MCF-7) turned out to be 3.82. Further, the “selectivity index COLO 205” value with COLO 205 (HUVEC versus COLO 205) is given as 5.45. Also, the cytotoxicity in words entry in data set [1] is reported as “moderate or strong cytotoxicity”.
As to `CC1(O)CCC2C(C)(C)C(O)CCC2(C)C1COc1ccc2ccc(=O)oc2c1` (centres unmarked) [Samarcandin (14), samarcandin], the half-maximal inhibitory concentration (IC50) in the data set with HUVEC came to 169 ± 2.68 µM; with K-562, 143 ± 1.67 µM; with MCF-7 it was 83.27 ± 0.39 µM; in the data set on COLO 205 it was 170 ± 3.62 µM. Besides, in data set [1], the cytotoxicity in words result is given as “little or no cytotoxicity”.
As to `CC(=O)O[C@@H]1CC[C@]2(C)[C@H](CC[C@@](C)(O)[C@@H]2COc2ccc3ccc(=O)oc3c2)C1(C)C` [Ferukrin acetate (10), ferukrin acetate], the IC50 with HUVEC was greater than 200 µM; in the data set on K-562, 88.42 ± 0.85 µM; with MCF-7 it was greater than 200 µM; in the data set on COLO 205, 106 ± 1.35 µM. In data set [1], the cytotoxicity in words result was “little or no cytotoxicity”.
For the compound `C=C1CC[C@@H]2C(C)(C)[C@H](O)CC[C@@]2(C)[C@H]1COc1ccc2ccc(=O)oc2c1` [Farnesiferol A (6), farnesiferol A], the IC50 in the data set with HUVEC was 74.4 ± 1.19 µM; in the data set on K-562 it was greater than 200 µM; in the data set with MCF-7, greater than 200 µM; in the data set with COLO 205, greater than 200 µM.
Regarding `CC(=O)O[C@H]1CC[C@]2(C)[C@H](CC[C@](C)(O)[C@H]2COc2ccc3ccc(=O)oc3c2)C1(C)C` [Samarcandin acetate (15), samarcandin acetate], the IC50 with HUVEC is greater than 200 µM; in the data set on K-562, 78.7 ± 1.65 µM; in the data set on MCF-7, greater than 200 µM; in the data set with COLO 205, 70.29 ± 0.65 µM. For the same compound, in data set [1], the cytotoxicity in words entry is given as “little or no cytotoxicity”.
For `COc1cccc2c1C(=O)c1c(O)c3c(c(O)c1C2=O)C[C@@](O)(C(=O)CO)C[C@@H]3O[C@H]1C[C@H](N)[C@H](O)[C@H](C)O1` [Doxorubicin, reference compound], the half-maximal inhibitory concentration (IC50) came to 0.2 ± 0.02 µM in the data set on HUVEC, 0.33 ± 0.02 µM in the data set on K-562, 2.83 ± 0.25 µM in the data set on MCF-7 and 0.08 µM in the data set on COLO 205.
Regarding `CC(=O)O[C@H]1CC[C@]2(C)[C@H](CC[C@@](C)(O)[C@@H]2COc2ccc3ccc(=O)oc3c2)C1(C)C` [Kellerin (12), kellerin], the IC50 in the data set with HUVEC stood at 99.4 ± 1.63 µM; in the data set with K-562 it was 78.1 ± 3.13 µM; in the data set with MCF-7 it was 18.24 ± 0.12 µM; with COLO 205, 51.1 ± 1.57 µM. In addition, the “cytotoxic effect in words, MCF-7” value in the data set on MCF-7 is on record as “moderate cytotoxic effect”.
Regarding `C=C1CC[C@@H]2C(C)(C)[C@@H](O)CC[C@@]2(C)[C@H]1COc1ccc2ccc(=O)oc2c1` [Gummosin (8), gummosin], the concentration for half-maximal inhibition (IC50) in the data set with HUVEC was 174.8 ± 0.28 µM; in the data set with K-562 it was 95.5 ± 4.87 µM; in the data set with MCF-7, greater than 200 µM; in the data set with COLO 205, greater than 200 µM. In addition, in data set [1], the cytotoxicity in words entry is listed as “little or no cytotoxicity”.
With `C=C1CC[C@@H]2C(C)(C)C(=O)CC[C@@]2(C)[C@@H]1COc1ccc2ccc(=O)oc2c1` [Badrakemone (4), badrakemone], the IC50 in the data set on HUVEC, in the data set with K-562, in the data set with MCF-7 and with COLO 205 was greater than 200 µM each time. Moreover, the cytotoxicity in words result in data set [1] was “little or no cytotoxicity”.

In general, IC50 refers to the concentration needed to halve the response being measured. Low values mean inhibition by little substance, high ones a need for much substance.
